Data taken from patent US8546395B2, “6-cycloamino-3-(1H-pyrrolo[2,3-b]pyridin-4-yl)imidazo[1,2-b]pyridazine derivatives, preparation thereof and therapeutic use thereof” (Sanofi, priority 2008, dated 2013).
Structures can show the parent of a compound that is named as a salt.

Molecular target: T1, casein kinase 1 epsilon (CK1 epsilon) (Homo sapiens, UniProt P49674)
T1 construct: Invitrogen Corporation (as an alternative)
Experiment: Filter-plate assay of ATP-33P for CK1 epsilon inhibitors (phosphorylation of casein)
Format: biochemical
Settings: casein substrate, ATP-33P with 10 μM cold ATP, 2 hours at ambient temperature
Description: The capacity of the compounds of the invention to inhibit the phosphorylation of casein by casein kinase 1 epsilon and delta may be evaluated according to the procedure described in US 2005/0131012.
Filter-Plate Assay of ATP-^33P for the Screening of CK1 Epsilon Inhibitors:
The effect of the compounds on inhibition of the phosphorylation of casein by the enzyme casein kinase 1 epsilon (CK1 epsilon) is measured, using a casein assay with filtration of ATP-^33P in vitro.
Casein kinase 1 epsilon (0.58 mg/ml) is obtained via fermentation and purification processes performed according to methods that are well known to those skilled in the art, or may also be obtained from Invitrogen Corporation™ (human CK1 epsilon).
The compounds are tested at five different concentrations so as to generate IC50 values, i.e. the concentration at which a compound is capable of inhibiting the enzymatic activity by 50%, or alternatively the percentage of inhibition at a concentration of 10 micromolar.
“U”-bottomed Falcon plates are prepared by placing 5 μL of solutions of the compounds according to the invention at concentrations of 10, 1, 0.1, 0.01 or 0.001 μM in various wells. The solutions of the compounds according to the invention at these various concentrations are prepared by diluting in a test buffer (50 mM Tris, pH 7.5, […], 2 mM DTT and 1 mM EGTA) a stock solution in DMSO at a concentration of 10 mM. Next, 5 μL of dephosphorylated casein are added to a final concentration of 0.2 μg/μL, 20 μl of CK1 epsilon to a final concentration of 3 ng/μl, and 20 μl of ATP-^33P to a final concentration of 0.02 μCi/μl mixed with cold ATP (10 μM final—approximately 2×10^6 CPM per well). The final total test volume per well is equal to 50 μl.
The “U”-bottomed Falcon® test plate mentioned above is vortexed, and then incubated at ambient temperature for 2 hours. After 2 hours, the reaction is stopped by adding an ice-cold solution of 65 μl of ATP (2 mM) prepared in test buffer.
100 μl of the reaction mixture are then transferred from the “U”-bottomed Falcon® plate into Millipore® MAPH filter plates, preimpregnated with 25 μl of ice-cold 100% TCA. […]
The plates are left to dry overnight at ambient temperature. […] The radiation emitted by each well is then measured for 2 minutes in a Packard® Topcount NXT scintillation counter, in which the values of CPM/well are measured.
The percentage inhibition of the capacity of the enzyme to phosphorylate the substrate (casein) is determined for each concentration of compound tested. These inhibition data expressed as percentages are used to calculate the IC50 value for each compound compared with the controls.
The kinetic studies determined the KM value for ATP as being 21 μM in this test system.

T1 sequence (P49674 whole entry): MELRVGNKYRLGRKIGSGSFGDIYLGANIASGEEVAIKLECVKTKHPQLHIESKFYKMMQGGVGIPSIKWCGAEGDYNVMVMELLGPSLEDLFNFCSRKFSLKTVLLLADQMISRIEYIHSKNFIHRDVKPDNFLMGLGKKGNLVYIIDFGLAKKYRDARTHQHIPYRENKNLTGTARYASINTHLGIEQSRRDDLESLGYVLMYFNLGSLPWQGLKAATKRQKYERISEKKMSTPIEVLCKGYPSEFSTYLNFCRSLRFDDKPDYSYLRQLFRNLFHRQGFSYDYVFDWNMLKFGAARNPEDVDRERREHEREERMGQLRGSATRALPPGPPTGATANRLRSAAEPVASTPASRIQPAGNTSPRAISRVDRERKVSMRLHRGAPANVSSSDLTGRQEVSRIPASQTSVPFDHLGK

IC50 | SMILES
303 nM | Cc1nc2ccc(N3C[C@@H](C)N[C@@H](C)C3)nn2c1-c1ccnc2[nH]ccc12 [Compound 3, 6-[(cis)-3,5-Dimethylpiperazin-1-yl]-2-methyl-3-(1H-pyrrolo[2,3-b]pyridin-4-yl)-imidazo[1,2-b]pyridazine]

Tested on: not given
Experiment: not given
Settings: not given

melting point | SMILES
148 to 168 °C | CN1C[C@@H]2C[C@H]1CN2c1ccc2nc(-c3ccc(F)cc3)c(-c3ccnc4[nH]ccc34)n2n1 [Compound 34, 2-(4-Fluorophenyl)-6-((1S,4S)-5-methyl-2,5-diazabicyclo[2.2.1]hept-2-yl)-3-(1H-pyrrolo[2,3-b]pyridin-4-yl)imidazo[1,2-b]pyridazine]
> 250 °C | CC(C)(CO)N1CCN(c2ccc3nc(-c4ccc(F)cc4)c(-c4ccnc5[nH]ccc45)n3n2)CC1 [Compound 19, 2-{4-[2-(4-Fluorophenyl)-3-(1H-pyrrolo[2,3-b]pyridin-4-yl)imidazo[1,2-b]pyridazin-6-yl]piperazin-1-yl}-2-methylpropan-1-ol]
238 to 239 °C | CN1C[C@@H]2CN(c3ccc4nc(-c5ccc(F)cc5)c(-c5ccnc6[nH]ccc56)n4n3)C[C@@H]2C1 [Compound 28, (cis)-2-(4-Fluorophenyl)-6-(5-methylhexahydropyrrolo[3,4-c]pyrrol-2(1H)-yl)-3-(1H-pyrrolo[2,3-b]pyridin-4-yl)imidazo[1,2-b]pyridazine]
201 to 203 °C | Cc1cc(N2CCN(CCO)CC2)nn2c(-c3ccnc4[nH]ccc34)c(-c3cccc(F)c3)nc12 [Compound 12, 2-{4-[2-(3-Fluorophenyl)-8-methyl-3-(1H-pyrrolo[2,3-b]pyridin-4-yl)imidazo[1,2-b]pyridazin-6-yl]piperazin-1-yl}ethanol]
293 to 299 °C | Cc1cc(N2CCNC3(CCCC3)C2)nn2c(-c3ccnc4[nH]ccc34)c(-c3ccc(F)cc3)nc12 [Compound 18, 6-(6,9-Diazaspiro[4.5]dec-9-yl)-2-(4-fluorophenyl)-8-methyl-3-(1H-pyrrolo[2,3-b]pyridin-4-yl)imidazo[1,2-b]pyridazine]
271 to 275 °C | Cc1cc(N2C[C@H]3CN(CCO)C[C@H]3C2)nn2c(-c3ccnc4[nH]ccc34)c(-c3ccc(F)cc3)nc12 [Compound 31, (cis)-2-{5-[2-(4-Fluorophenyl)-8-methyl-3-(1H-pyrrolo[2,3-b]pyridin-4-yl)imidazo[1,2-b]pyridazin-6-yl]hexahydropyrrolo[3,4-c]pyrrol-2(1H)-yl}ethanol]
215 °C (dec.) | Fc1ccc(-c2nc3ccc(N4CCN[C@@H](c5ccccc5)C4)nn3c2-c2ccnc3[nH]ccc23)cc1 (as salt: HCl) [Compound 25, (S)-2-(4-Fluorophenyl)-6-[3-phenylpiperazin-1-yl]-3-(1H-pyrrolo[2,3-b]pyridin-4-yl)imidazo[1,2-b]pyridazine]
73 to 75 °C | CC(C)(O)CCN1CCN(c2ccc3nc(-c4ccc(F)cc4)c(-c4ccnc5[nH]ccc45)n3n2)CC1 [Compound 23, 4-{4-[2-(4-Fluorophenyl)-3-(1H-pyrrolo[2,3-b]pyridin-4-yl)imidazo[1,2-b]pyridazin-6-yl]piperazin-1-yl}-2-methylbutan-2-ol]
270 to 273 °C | Cc1cc(N2CCNC(C)(C)C2)nn2c(-c3ccnc4[nH]ccc34)c(-c3cccc(F)c3)nc12 [Compound 9, 6-(3,3-Dimethylpiperazin-1-yl)-2-(3-fluorophenyl)-8-methyl-3-(1H-pyrrolo[2,3-b]pyridin-4-yl)imidazo[1,2-b]pyridazine]
239 to 242 °C | Cc1cc(N2CCN(CCO)CC2)nn2c(-c3ccnc4[nH]ccc34)c(-c3ccc(F)cc3)nc12 [Compound 13, 2-{4-[2-(4-Fluorophenyl)-8-methyl-3-(1H-pyrrolo[2,3-b]pyridin-4-yl)imidazo[1,2-b]pyridazin-6-yl]piperazin-1-yl}ethanol]
271 to 273 °C | CC(C)N1CCN(c2ccc3nc(-c4ccc(F)cc4)c(-c4ccnc5[nH]ccc45)n3n2)CC1 [Compound 14, 2-(4-Fluorophenyl)-6-(4-isopropylpiperazin-1-yl)-3-(1H-pyrrolo[2,3-b]pyridin-4-yl)imidazo[1,2-b]pyridazine]
> 260 °C | Cc1cc(N2C[C@H]3CCCN(C)[C@H]3C2)nn2c(-c3ccnc4[nH]ccc34)c(-c3ccc(F)cc3)nc12 [Compound 32, 2-(4-Fluorophenyl)-8-methyl-6-((4aR,7aR)-1-methyloctahydro-6H-pyrrolo[3,4-b]pyridin-6-yl)-3-(1H-pyrrolo[2,3-b]pyridin-4-yl)imidazo[1,2-b]pyridazine]
288 to 290 °C | C[C@@H]1CN(c2ccc3nc(-c4ccc(F)cc4)c(-c4ccnc5[nH]ccc45)n3n2)C[C@H](C)N1 [Compound 11, 6-[(cis)-3,5-Dimethylpiperazin-1-yl]-2-(4-fluorophenyl)-3-(1H-pyrrolo[2,3-b]pyridin-4-yl)imidazo[1,2-b]pyridazine]
> 260 °C | Cc1cc(N2C[C@@H]3CCCN(C)[C@@H]3C2)nn2c(-c3ccnc4[nH]ccc34)c(-c3ccc(F)cc3)nc12 [Compound 33, 2-(4-Fluorophenyl)-8-methyl-6-((4aS,7aS)-1-methyloctahydro-6H-pyrrolo[3,4-b]pyridin-6-yl)-3-(1H-pyrrolo[2,3-b]pyridin-4-yl)imidazo[1,2-b]pyridazine]
215 °C (dec.) | Fc1ccc(-c2nc3ccc(N4CCN[C@H](c5ccccc5)C4)nn3c2-c2ccnc3[nH]ccc23)cc1 (as salt: HCl) [Compound 24, (R)-2-(4-Fluorophenyl)-6-[3-phenylpiperazin-1-yl]-3-(1H-pyrrolo[2,3-b]pyridin-4-yl)imidazo[1,2-b]pyridazine]
253 to 257 °C | Cc1cc(N2CCNC(c3ccccc3)C2)nn2c(-c3ccnc4[nH]ccc34)c(-c3ccc(F)cc3)nc12 (centres unmarked) [Compound 26, 2-(4-Fluorophenyl)-8-methyl-6-[3-phenylpiperazin-1-yl]-3-(1H-pyrrolo[2,3-b]pyridin-4-yl)imidazo[1,2-b]pyridazine]
265 to 268 °C | Cc1cc(N2CCN(CC(C)(C)O)CC2)nn2c(-c3ccnc4[nH]ccc34)c(-c3ccc(F)cc3)nc12 [Compound 22, 1-{4-[2-(4-Fluorophenyl)-8-methyl-3-(1H-pyrrolo[2,3-b]pyridin-4-yl)imidazo[1,2-b]pyridazin-6-yl]piperazin-1-yl}-2-methylpropan-2-ol]
285 to 291 °C | Cc1cc(N2CCN(C(C)C)CC2)nn2c(-c3ccnc4[nH]ccc34)c(-c3ccc(F)cc3)nc12 [Compound 15, 2-(4-Fluorophenyl)-6-(4-isopropylpiperazin-1-yl)-8-methyl-3-(1H-pyrrolo[2,3-b]pyridin-4-yl)imidazo[1,2-b]pyridazine]
> 270 °C | Cc1cc(N2CCN(CC(C)(C)O)CC2)nn2c(-c3ccnc4[nH]ccc34)c(-c3cccc(F)c3)nc12 [Compound 21, 1-{4-[2-(3-Fluorophenyl)-8-methyl-3-(1H-pyrrolo[2,3-b]pyridin-4-yl)imidazo[1,2-b]pyridazin-6-yl]piperazin-1-yl}-2-methylpropan-2-ol]
> 300 °C | Cc1cc(N2CCNC(C)(C)C2)nn2c(-c3ccnc4[nH]ccc34)c(-c3ccc(F)cc3)nc12 [Compound 10, 6-(3,3-Dimethylpiperazin-1-yl)-2-(4-fluorophenyl)-8-methyl-3-(1H-pyrrolo[2,3-b]pyridin-4-yl)imidazo[1,2-b]pyridazine]
274 to 278 °C | Fc1ccc(-c2nc3ccc(N4CCN(Cc5ccccc5)CC4)nn3c2-c2ccnc3[nH]ccc23)cc1 [Compound 27, 6-(4-Benzylpiperazin-1-yl)-2-(4-fluorophenyl)-3-(1H-pyrrolo[2,3-b]pyridin-4-yl)imidazo[1,2-b]pyridazine]
175 to 180 °C | OCCN1C[C@@H]2CN(c3ccc4nc(-c5ccc(F)cc5)c(-c5ccnc6[nH]ccc56)n4n3)C[C@@H]2C1 [Compound 30, (cis)-2-{5-[2-(4-Fluorophenyl)-3-(1H-pyrrolo[2,3-b]pyridin-4-yl)imidazo[1,2-b]pyridazin-6-yl]hexahydropyrrolo[3,4-c]pyrrol-2(1H)-yl}ethanol]
